Assay results published in patent publication US10307410B2, “Mcl-1 modulating compounds for cancer treatment” (CENTRE REGIONAL DE LUTTE CONTRE LE CANCER FRANCOIS BACLESSE, priority 2014, dated 2019).

How the values were obtained:
Type in all cases: cell-based
[1] = target: T1, Mcl-1/Puma interaction (Homo sapiens, UniProt Q07820); test: BRET assay, Mcl-1/Puma interaction; conditions: BRET in Hela cells, 16 hours
T1 construct: expressed in transfected cells; host or cells: HeLa cells
Method: (§1) Hela cells were seeded on 6-well plates and transfected with 200 ng/well of plasmid pRLuc-Bax, pRLuc-Puma or pRLuc-Noxa coding for BRET donors and 1 µg/well of peYFP-Bcl-xL or peYFP-Mcl-1 coding for BRET acceptors (or with pCMV-Bcl-xL or pCMV-Mcl-1 for control). Twenty-four hours after transfection, cells were trypsinized and re-seeded into white 96 well plate flat bottom, incubated for another day, and then treated with drugs for 16 hours at 10 μM. Light emission at 485 nm and 530 nm was measured consecutively using the Mithras fluorescence-luminescence detector LB 940 (Berthold) after adding the luciferase substrate, coelenterazine H (Uptima) at a final concentration of 5 μM. BRET ratios were calculated as described [Terrillon et al. (2003) Mol Endocrinol 17, 677-691, Vo et al. (2012) Eur J Med Chem., 286-93].

[2] = target: T2, Noxa/Mcl-1 interaction (Homo sapiens, UniProt Q07820); test: BRET assay, Noxa/Mcl-1 interaction; conditions: BRET in Hela cells, 10 μM, 16 hours
T2 construct: expressed in transfected cells; host or cells: HeLa cells
Method: as §1

[3] = system: IGROV1-R10 chemoresistant ovarian cancer cells; test: Real-time cellular activity by impedancemetry (xCELLigence); conditions: IGROV1-R10, 25 μM Pyridoclax + 5 μM ABT-737
Method: FIG. 4 represents the effect of the association of Pyridoclax with ABT-737 on chemoresistant ovarian cancer cells IGROV1-R10 (top) and SKOV3 (bottom). Cells were concomitantly (A, E) or sequentially (B) exposed to 25 μM Pyridoclax and 5 μM ABT-737, and cellular effects were assessed either longitudinally (A, B, E) or after 24 h (C, D, F). [A, B, E] real time cellular activity assessed by impedancmetry (xCELLigence technology), after concomitant exposure (A, E) or sequential exposure (B; 24 h Pyridoclax, then ABT-737). [C]: Cellular morphology and DNA content histograms after a 24 h concomitant exposure. [D and F]: PARP and caspase 3 cleavage after a 24 h concomitant exposure.
Compound-mediated cytotoxicity was monitored using Real-Time Cell Analyzer multi-plate (RTCA MP) Instrument, xCELLigence System (Roche Applied Science, Mannheim, Germany). This system monitors cellular events in real time measuring electrical impedance across interdigitated micro-electrodes integrated on the bottom of tissue culture E-plates View (Roche). […] Thus, this index reflects changes in cell viability as described by Ke et al. (2011, Methods Mol Biol 740, 33-43). […] Impedance was continuously measured until the end of the treatment. Standard deviations of well replicates were analyzed with the RTCA Software.

[4] = system: IGROV1-R10 ovarian cancer cells; test: DNA content histograms (sub-G1) by flow cytometry
Method: (§2) Exponentially growing cells were transfected by siRNA as described below, and after 48 h, cells were continuously exposed to (Het)aromatic oligosystems (10, 25 or 50 μM) dissolved in DMSO (<0.1% of total volume) for 4 to 24 supplementary hours.
Cells were seeded in 25 cm^2 flasks the day before to reach 30-50% confluency at the time of transfection. The transfection INTERFERin™ reagent (Polyplus Transfection, Strasbourg. France) was added to siRNA diluted in Opti-MEM® reduced serum medium (Invitrogen, Cergy-Pontoise, France) and complexes formation was allowed to proceed for 15 min at RT before being applied to cells. […]
Adherent and floating cells were pooled, washed with 1×PBS and centrifuged at 200 g for 5 min before staining by Annexin V, propidium iodide or both, as recommended by the manufacturer (Roche Diagnostic, Indianapolis, USA). Briefly, 100 μl of Annexin V—Flit or propidium iodide or both were added on the cells pellet (10^6 cells) and incubated 15 minutes at room temperature in obscurity. 500 μl of sample buffer was then added on the suspensions that were thereafter analyzed using a Gallios flow cytometer (Beckman Coulter, Roissy, France) and cell cycle distribution was determined using Kaluza acquisition software (Beckman Coulter).

[5] = system: IGROV1-R10 ovarian cancer cells; test: PARP and caspase 3 cleavage by western blot; parameters: key to PARP cleavage: +: a little band corresponding to the 85 kDa cleaved form of PARP is observable on the western blot; ++: a band corresponding to the 85 kDa cleaved form of PARP is clearly observable on the western blot; +++: PARP in nearly completely cleaved
Method: as §2
Cells were seeded in 25 cm^2 flasks the day before to reach 30-50% confluency at the time of transfection. The transfection INTERFERin™ reagent (Polyplus Transfection, Strasbourg. France) was added to siRNA diluted in Opti-MEM® reduced serum medium (Invitrogen, Cergy-Pontoise, France) and complexes formation was allowed to proceed for 15 min at RT before being applied to cells. The final siRNA concentration in the flasks was 20 nM.
Cells were rinsed with ice-cold PBS, suspended in a lysis buffer [RIPA:NaCl 150 mM, Tris (pH 8) 50 mM, Triton X100 1%, PMSF 4 mM, EDTA 5 mM, NaF 10 mM, NaPPi 10 mM, Na3OV4 1 mM, aprotinin 0.5 μl/ml and 4.6 ml ultra pure water] and incubated on ice for 30 minutes. Lysates were collected after centrifugation (13200 g, 10 min, 4° C.) and protein concentrations were determined using the Bradford assay (Bio-Rad, Hercules, USA). 20 μg of protein were separated by SDS-PAGE on a 4-12% gradient polyacrylamide gel (Invitrogen, Cergy-Pontoise, France) and transferred to Hybond-PVDF membranes (Amersham, Orsay, France). After blocking non-specific binding sites for 1 hour at RT by 5% (w/v) non-fat dry milk in TBS with 0.1% (v/v) Tween20 (T-TBS), the membranes were incubated overnight at 4° C. with the following rabbit monoclonal antibody: PARP, caspase-3 and Bcl-xL, Bim (Cell Signaling Technology, Ozyme, Saint-Quentin-en-Yvelines, France), Mcl-1 (Santa Cruz, Le Perray-en-Yvelines, France), HSP-70, Noxa (Calbiochem, Fontenay-sous-Bois, France), (Cell Signalling) and Actin (Sigma-Aldrich, Saint-Quentin Fallavier, France). Membranes were then washed with T-TBS and incubated for 1 hour with the appropriate horseradish peroxidase-conjugated anti-rabbit or anti-mouse (Amersham, Orsay, France) secondary antibodies. Revelation was done using a luminescent Image Analyzer (GE Healthcare, Orsay, France).

[6] = system: IGROV1-R10 ovarian cancer cells; test: Trypan blue exclusion assay; conditions: IGROV1-R10, Pyridoclax associated to siXL1
[7] = Molecule + Bcl-xL targeting siRNA

T1 sequence (Q07820 whole entry): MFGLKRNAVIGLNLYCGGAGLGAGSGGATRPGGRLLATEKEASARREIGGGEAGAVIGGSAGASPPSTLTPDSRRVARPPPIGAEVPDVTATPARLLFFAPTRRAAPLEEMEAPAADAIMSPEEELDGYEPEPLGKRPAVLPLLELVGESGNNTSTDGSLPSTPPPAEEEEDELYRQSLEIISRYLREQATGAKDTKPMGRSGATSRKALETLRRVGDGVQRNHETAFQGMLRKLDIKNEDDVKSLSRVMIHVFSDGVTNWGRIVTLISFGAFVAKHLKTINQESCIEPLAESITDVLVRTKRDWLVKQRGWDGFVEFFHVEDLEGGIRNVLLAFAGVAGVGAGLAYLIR
T2 sequence (Q07820 whole entry): as above

effect on Mcl-1/Puma interaction ([1]; 10 μM): able to disrupt | inhibition at 10 µM [1]: ~50% | effect on Noxa/Mcl-1 interaction [2]: able to disrupt
SMILES: Cc1cc(-c2ncc(-c3cccnc3)cc2/C=C/c2ccccc2)cnc1-c1cccnc1 [Pyridoclax, 5,6′-di(pyridin-3-yl)-5′-methyl-3-((E)-styryl)-2,3′-bipyridine]
cellular activity (impedancemetry) [3]: drastically decreased | sub-G1 Peak on the DNA content histogram ([4]; IGROV1-R10, 10 nM siXL1 48 h then 25 μM Pyridoclax 24 h): over 50% | time after beginning of exposure at which apoptosis was observed ([4]; IGROV1-R10, siXL1 + Pyridoclax): 2 to 4 h | events in sub-G1 fraction ([4]; IGROV1-R10, siXL1 + Pyridoclax, after 4 h exposure): 37% | Sub-G1 (%) [4, 7]: 53.6% | cleavage of PARP and caspase 3 ([5]; IGROV1-R10, Pyridoclax associated to siXL1): complete cleavage of PARP and caspase 3 | PARP cleavage [5, 7]: +++ | number of viable cells [6]: drastic decrease of the number of viable cells
